The values that follow come from ChEMBL document CHEMBL1137464, “Novel steroidal saponins, Sch 725737 and Sch 725739, from a marine starfish, Novodinia antillensis” (Bioorg Med Chem Lett, 2007).

Test [1] concerns the target T1, Sodium channel protein type 10 subunit alpha (Homo sapiens, UniProt Q9Y5Y9). The test can be described thus: Inhibition of sodium channel NaV1.8 expressed in rat ND7/23 cells by FLIPR assay. The format is cell-based.
Target sequence in this assay (Q9Y5Y9 whole entry): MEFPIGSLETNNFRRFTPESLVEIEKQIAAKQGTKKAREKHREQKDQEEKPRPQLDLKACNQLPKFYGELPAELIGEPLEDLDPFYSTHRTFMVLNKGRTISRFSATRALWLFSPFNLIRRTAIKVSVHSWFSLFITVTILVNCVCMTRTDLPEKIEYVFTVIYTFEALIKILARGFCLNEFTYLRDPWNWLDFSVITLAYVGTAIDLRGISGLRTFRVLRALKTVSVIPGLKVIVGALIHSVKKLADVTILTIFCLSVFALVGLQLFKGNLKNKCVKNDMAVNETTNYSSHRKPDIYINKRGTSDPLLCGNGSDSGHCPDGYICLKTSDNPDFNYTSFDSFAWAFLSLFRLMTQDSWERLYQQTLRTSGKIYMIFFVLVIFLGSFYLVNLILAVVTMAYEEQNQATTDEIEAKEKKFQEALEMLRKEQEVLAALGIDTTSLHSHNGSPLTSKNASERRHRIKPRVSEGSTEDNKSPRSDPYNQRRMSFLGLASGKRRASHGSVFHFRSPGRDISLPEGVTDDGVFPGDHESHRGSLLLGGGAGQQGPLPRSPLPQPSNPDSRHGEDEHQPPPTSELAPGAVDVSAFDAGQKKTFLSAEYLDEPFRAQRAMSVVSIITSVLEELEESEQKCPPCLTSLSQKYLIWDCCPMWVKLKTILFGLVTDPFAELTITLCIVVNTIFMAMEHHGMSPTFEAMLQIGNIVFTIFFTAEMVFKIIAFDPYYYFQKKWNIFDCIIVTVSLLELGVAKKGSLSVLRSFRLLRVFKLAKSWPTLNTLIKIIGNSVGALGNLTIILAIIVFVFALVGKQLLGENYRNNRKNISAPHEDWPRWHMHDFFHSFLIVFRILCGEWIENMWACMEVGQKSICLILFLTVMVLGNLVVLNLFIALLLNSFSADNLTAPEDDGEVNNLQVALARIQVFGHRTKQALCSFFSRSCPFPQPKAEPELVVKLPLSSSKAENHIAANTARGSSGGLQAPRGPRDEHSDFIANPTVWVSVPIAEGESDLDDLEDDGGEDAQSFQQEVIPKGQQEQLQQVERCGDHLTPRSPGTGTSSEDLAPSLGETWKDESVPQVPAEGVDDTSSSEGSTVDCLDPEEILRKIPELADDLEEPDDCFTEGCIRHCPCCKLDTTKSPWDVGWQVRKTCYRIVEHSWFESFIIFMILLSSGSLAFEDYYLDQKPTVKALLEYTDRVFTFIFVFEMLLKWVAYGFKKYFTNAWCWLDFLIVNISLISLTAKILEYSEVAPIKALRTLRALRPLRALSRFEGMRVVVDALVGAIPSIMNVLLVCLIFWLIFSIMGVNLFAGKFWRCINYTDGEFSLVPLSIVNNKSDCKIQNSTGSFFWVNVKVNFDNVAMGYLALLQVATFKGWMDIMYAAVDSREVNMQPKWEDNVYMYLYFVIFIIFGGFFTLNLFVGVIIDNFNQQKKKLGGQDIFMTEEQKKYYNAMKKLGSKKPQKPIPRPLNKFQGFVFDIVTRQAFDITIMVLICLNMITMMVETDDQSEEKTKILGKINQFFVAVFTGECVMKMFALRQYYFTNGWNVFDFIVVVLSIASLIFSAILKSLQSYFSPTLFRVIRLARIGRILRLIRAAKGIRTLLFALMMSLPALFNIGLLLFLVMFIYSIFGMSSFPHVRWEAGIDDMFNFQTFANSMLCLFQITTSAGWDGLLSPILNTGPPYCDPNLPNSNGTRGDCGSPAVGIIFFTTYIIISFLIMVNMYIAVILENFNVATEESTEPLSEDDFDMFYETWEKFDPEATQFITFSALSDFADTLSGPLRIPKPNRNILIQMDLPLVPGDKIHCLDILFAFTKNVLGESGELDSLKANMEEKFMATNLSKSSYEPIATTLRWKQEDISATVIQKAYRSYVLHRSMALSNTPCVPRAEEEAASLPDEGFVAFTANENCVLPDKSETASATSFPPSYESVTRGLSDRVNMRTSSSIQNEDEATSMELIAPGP
For test [2], the target named is T1, Sodium channel protein type 10 subunit alpha. The test can be described thus: Inhibition of sodium channel NaV1.8 at 20 ug/mL by HTS assay.
Target sequence in this assay (Q9Y5Y9 whole entry, looked up): as the sequence (Q9Y5Y9 whole entry) above

Usually IC50 stands for the concentration that inhibits the measured activity by half. The low end stands for inhibition by little substance, the high end for a need for much substance. Usually inhibition stands for the change of the read-out against control, counted positive when it falls. The low end stands for little suppression, the high end for strong suppression. In turn, `CC(C)CCC[C@@](C)(O)[C@H]1CC[C@H]2[C@@H]3C[C@H](O[C@@H]4O[C@H](C)[C@@H](O)[C@H](O[C@@H]5OC[C@@H](O[C@@H]6O[C@H](C)[C@@H](O[C@@H]7OC[C@H](O)[C@H](O)[C@H]7O)[C@H](O)[C@H]6O[C@@H]6O[C@H](C)[C@H](O)[C@H](O)[C@H]6O)[C@H](O)[C@H]5O[C@@H]5O[C@H](C)[C@@H](O)[C@H](O)[C@H]5O)[C@H]4O)[C@H]4C[C@@H](OS(=O)(=O)O)CC[C@]4(C)C3=CC[C@@]21C` returned an IC50 in test [1] of 9 µM. Further, the inhibition in test [2] stood at 88%. `CC(C)CCC[C@@](C)(O)[C@H]1CC[C@H]2[C@@H]3C[C@H](O[C@@H]4O[C@H](C)[C@@H](O)[C@H](O[C@@H]5O[C@H](C)[C@@H](O[C@@H]6O[C@H](C)[C@@H](O[C@@H]7OC[C@H](O)[C@H](O)[C@H]7O)[C@H](O)[C@H]6O[C@@H]6O[C@H](C)[C@H](O)[C@H](O)[C@H]6O)[C@H](O)[C@H]5O[C@@H]5O[C@H](C)[C@@H](O)[C@H](O)[C@H]5O)[C@H]4O)[C@H]4C[C@@H](OS(=O)(=O)O)CC[C@]4(C)C3=CC[C@@]21C` showed an inhibition in test [2] of 88%.
